#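 Briefly, cells in 96-well plates were exposed to five compound concentrations for 48 h, and endpoints were estimated by linear interpolation. GI50: concentration for 50% inhibition of growth. TGI marks complete inhibition of growth.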
# Assays:
# Assay in all cases: DTP human tumour cell line panel, 48 h
# 786-0 renal = test system: 786-0 renal
# A498 renal = test system: A498 renal
# A549 NSCLC = test system: A549 NSCLC
# ACHN renal = test system: ACHN renal
# BT-549 breast = test system: BT-549 breast
# CAKI-1 renal = test system: CAKI-1 renal
# CCRF-CEM leukemia = test system: CCRF-CEM leukemia
# COLO 205 colon = test system: COLO 205 colon
# DU-145 prostate = test system: DU-145 prostate
# HCC-2998 colon = test system: HCC-2998 colon
# HCT-116 colon = test system: HCT-116 colon
# HCT-15 colon = test system: HCT-15 colon
# HL-60(TB) leukemia = test system: HL-60(TB) leukemia
# HOP-62 NSCLC = test system: HOP-62 NSCLC
# HS 578T breast = test system: HS 578T breast
# HT29 colon = test system: HT29 colon
# IGROV1 ovarian = test system: IGROV1 ovarian
# K-562 leukemia = test system: K-562 leukemia
# KM12 colon = test system: KM12 colon
# LOX IMVI melanoma = test system: LOX IMVI melanoma
# M14 melanoma = test system: M14 melanoma
# MALME-3M melanoma = test system: MALME-3M melanoma
# MCF7 breast = test system: MCF7 breast
# MDA-MB-231 breast = test system: MDA-MB-231 breast
# MDA-MB-435 = test system: MDA-MB-435
# MOLT-4 leukemia = test system: MOLT-4 leukemia
# NCI-H226 lung = test system: NCI-H226 lung
# NCI-H23 lung = test system: NCI-H23 lung
# NCI-H460 lung = test system: NCI-H460 lung
# NCI-H522 lung = test system: NCI-H522 lung
# NCI/ADR-RES ovarian = test system: NCI/ADR-RES ovarian
# OVCAR-3 ovarian = test system: OVCAR-3 ovarian
# OVCAR-4 ovarian = test system: OVCAR-4 ovarian
# OVCAR-5 ovarian = test system: OVCAR-5 ovarian
# OVCAR-8 ovarian = test system: OVCAR-8 ovarian
# PC-3 prostate = test system: PC-3 prostate
# RPMI-8226 leukemia = test system: RPMI-8226 leukemia
# RXF 393 renal = test system: RXF 393 renal
# SF-268 CNS = test system: SF-268 CNS
# SF-295 CNS = test system: SF-295 CNS
# SF-539 CNS = test system: SF-539 CNS
# SK-MEL-2 melanoma = test system: SK-MEL-2 melanoma
# SK-MEL-28 melanoma = test system: SK-MEL-28 melanoma
# SK-MEL-5 melanoma = test system: SK-MEL-5 melanoma
# SK-OV-3 ovarian = test system: SK-OV-3 ovarian
# SN12C renal = test system: SN12C renal
# SNB-19 CNS = test system: SNB-19 CNS
# SNB-75 CNS = test system: SNB-75 CNS
# SR leukemia = test system: SR leukemia
# SW-620 colon = test system: SW-620 colon
# T-47D breast = test system: T-47D breast
# TK-10 renal = test system: TK-10 renal
# U251 CNS = test system: U251 CNS
# UACC-257 melanoma = test system: UACC-257 melanoma
# UACC-62 melanoma = test system: UACC-62 melanoma
# UO-31 renal = test system: UO-31 renal
compound,measurement,setting,value
Cc1cc(N/N=C/c2ccccn2)nc2ccccc12,GI50,786-0 renal,384 nM
same,TGI,786-0 renal,12.4 µM
same,GI50,A498 renal,633 nM
same,TGI,A498 renal,7.05 µM
same,GI50,A549 NSCLC,361 nM
same,TGI,A549 NSCLC,12.3 µM
same,GI50,ACHN renal,347 nM
same,TGI,ACHN renal,11.1 µM
same,GI50,BT-549 breast,850 nM
same,TGI,BT-549 breast,20.3 µM
same,GI50,CAKI-1 renal,313 nM
same,TGI,CAKI-1 renal,2590 nM
same,GI50,CCRF-CEM leukemia,250 nM
same,TGI,CCRF-CEM leukemia,1770 nM
same,GI50,COLO 205 colon,367 nM
same,TGI,COLO 205 colon,12.4 µM
same,GI50,DU-145 prostate,460 nM
same,TGI,DU-145 prostate,14.3 µM
same,GI50,HCC-2998 colon,462 nM
same,TGI,HCC-2998 colon,16.1 µM
same,GI50,HCT-116 colon,393 nM
same,TGI,HCT-116 colon,5.81 µM
same,GI50,HCT-15 colon,336 nM
same,TGI,HCT-15 colon,16.3 µM
same,GI50,HL-60(TB) leukemia,295 nM
same,TGI,HL-60(TB) leukemia,804 nM
same,GI50,HOP-62 NSCLC,331 nM
same,TGI,HOP-62 NSCLC,5.06 µM
same,GI50,HS 578T breast,8.2 µM
same,TGI,HS 578T breast,34.5 µM
same,GI50,HT29 colon,605 nM
same,TGI,HT29 colon,13.1 µM
same,GI50,IGROV1 ovarian,356 nM
same,TGI,IGROV1 ovarian,3.95 µM
same,GI50,K-562 leukemia,422 nM
same,TGI,K-562 leukemia,7.55 µM
same,GI50,KM12 colon,508 nM
same,TGI,KM12 colon,14.9 µM
same,GI50,LOX IMVI melanoma,413 nM
same,TGI,LOX IMVI melanoma,10.9 µM
same,GI50,M14 melanoma,413 nM
same,TGI,M14 melanoma,5.62 µM
same,GI50,MALME-3M melanoma,842 nM
same,TGI,MALME-3M melanoma,10.2 µM
same,GI50,MCF7 breast,316 nM
same,TGI,MCF7 breast,8.94 µM
same,GI50,MDA-MB-231 breast,469 nM
same,TGI,MDA-MB-231 breast,14.3 µM
same,GI50,MDA-MB-435,679 nM
same,TGI,MDA-MB-435,15.9 µM
same,GI50,MOLT-4 leukemia,352 nM
same,TGI,MOLT-4 leukemia,4.98 µM
same,GI50,NCI-H226 lung,286 nM
same,TGI,NCI-H226 lung,4.93 µM
same,GI50,NCI-H23 lung,831 nM
same,TGI,NCI-H23 lung,22.2 µM
same,GI50,NCI-H460 lung,349 nM
same,TGI,NCI-H460 lung,11.6 µM
same,GI50,NCI-H522 lung,359 nM
same,TGI,NCI-H522 lung,4.81 µM
same,GI50,NCI/ADR-RES ovarian,393 nM
same,TGI,NCI/ADR-RES ovarian,21.7 µM
same,GI50,OVCAR-3 ovarian,382 nM
same,TGI,OVCAR-3 ovarian,11 µM
same,GI50,OVCAR-4 ovarian,166 nM
same,TGI,OVCAR-4 ovarian,7.2 µM
same,GI50,OVCAR-5 ovarian,542 nM
same,TGI,OVCAR-5 ovarian,18.5 µM
same,GI50,OVCAR-8 ovarian,381 nM
same,TGI,OVCAR-8 ovarian,16.6 µM
same,GI50,PC-3 prostate,486 nM
same,TGI,PC-3 prostate,19.2 µM
same,GI50,RPMI-8226 leukemia,410 nM
same,TGI,RPMI-8226 leukemia,12.5 µM
same,GI50,RXF 393 renal,321 nM
same,TGI,RXF 393 renal,4.87 µM
same,GI50,SF-268 CNS,440 nM
same,TGI,SF-268 CNS,15.3 µM
same,GI50,SF-295 CNS,307 nM
same,TGI,SF-295 CNS,3.2 µM
same,GI50,SF-539 CNS,289 nM
same,TGI,SF-539 CNS,1040 nM
same,GI50,SK-MEL-2 melanoma,4.89 µM
same,TGI,SK-MEL-2 melanoma,19.6 µM
same,GI50,SK-MEL-28 melanoma,895 nM
same,TGI,SK-MEL-28 melanoma,16.8 µM
same,GI50,SK-MEL-5 melanoma,302 nM
same,TGI,SK-MEL-5 melanoma,6.24 µM
same,GI50,SK-OV-3 ovarian,668 nM
same,TGI,SK-OV-3 ovarian,16 µM
same,GI50,SN12C renal,368 nM
same,TGI,SN12C renal,17.3 µM
same,GI50,SNB-19 CNS,535 nM
same,TGI,SNB-19 CNS,26.3 µM
same,GI50,SNB-75 CNS,461 nM
same,TGI,SNB-75 CNS,15.2 µM
same,GI50,SR leukemia,308 nM
same,TGI,SR leukemia,5 µM
same,GI50,SW-620 colon,588 nM
same,TGI,SW-620 colon,19.6 µM
same,GI50,T-47D breast,376 nM
same,TGI,T-47D breast,15.9 µM
same,GI50,TK-10 renal,674 nM
same,TGI,TK-10 renal,20.6 µM
same,GI50,U251 CNS,378 nM
same,TGI,U251 CNS,10.5 µM
same,GI50,UACC-257 melanoma,395 nM
same,TGI,UACC-257 melanoma,5.02 µM
same,GI50,UACC-62 melanoma,406 nM
same,TGI,UACC-62 melanoma,3.36 µM
same,GI50,UO-31 renal,286 nM
same,TGI,UO-31 renal,2290 nM

# Reference: PubChem BioAssay (NCI)
